Test results from PubChem BioAssay AID1845206 (Molecular Pharmacology Branch, DTP, NCI, 2023).
Active and inactive are the calls of the source. Rule for the calls: active = viability on the fitted dose curve at most 10% of control; inactive = the rest.

Test system: NCI-H1618 multicellular tumor spheroid viability
Experiment: Anticancer human tumor NCI-H1618 cell line growth inhibition;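 note: spheroids exposed to agents for 7 days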
Conditions: for IC50: curve of first compound; for viability, T/C: stronger effect = lower value
In short: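 Complex tumor spheroids combined malignant cells with endothelial cells and mesenchymal stem cells. DNA-damaging drugs and DNA repair inhibitors were tested alone and in combination, at half-log dilutions down from clinical Cmax (top 10 microM if Cmax unknown), 0.25% DMSO final.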

[1] = second compound 1 µM, first compound 0.00949 µM
[2] = second compound 1 µM, first compound 0.03 µM
[3] = second compound 1 µM, first compound 0.0949 µM
[4] = second compound 1 µM, first compound 0.3 µM
[5] = second compound 1 µM, first compound 0.949 µM
[6] = second compound 1 µM, first compound 3 µM
[7] = second compound 3.16 µM, first compound 0.00949 µM
[8] = second compound 3.16 µM, first compound 0.03 µM
[9] = second compound 3.16 µM, first compound 0.0949 µM
[10] = second compound 3.16 µM, first compound 0.3 µM
[11] = second compound 3.16 µM, first compound 0.949 µM
[12] = second compound 3.16 µM, first compound 3 µM
[13] = second compound 10 µM, first compound 0.00949 µM
[14] = second compound 10 µM, first compound 0.03 µM
[15] = second compound 10 µM, first compound 0.0949 µM
[16] = second compound 10 µM, first compound 0.3 µM
[17] = second compound 10 µM, first compound 0.949 µM
[18] = second compound 10 µM, first compound 3 µM
[19] = second compound 31.6 µM, first compound 0.00949 µM
[20] = second compound 31.6 µM, first compound 0.03 µM
[21] = second compound 31.6 µM, first compound 0.0949 µM
[22] = second compound 31.6 µM, first compound 0.3 µM
[23] = second compound 31.6 µM, first compound 0.949 µM
[24] = second compound 31.6 µM, first compound 3 µM
[25] = second compound 100 µM, first compound 0.00949 µM
[26] = second compound 100 µM, first compound 0.03 µM
[27] = second compound 100 µM, first compound 0.0949 µM
[28] = second compound 100 µM, first compound 0.3 µM
[29] = second compound 100 µM, first compound 0.949 µM
[30] = second compound 100 µM, first compound 3 µM

`CNCc1ccc(-c2cc(-c3nc(-c4ccc(S(=O)(=O)C(C)C)cc4)cnc3N)on2)cc1` + Cn1nnc2c(C(N)=O)ncn2c1=O gave an IC50 (second compound 1 µM) of 57.2 nM, an IC50 (second compound 3.16 µM) of under 9.49 nM and an IC50 (second compound 10 µM) of under 9.49 nM. For the same compound, the IC50 (second compound 31.6 µM) was under 9.49 nM, the IC50 (second compound 100 µM) was under 9.49 nM and the viability, T/C [1] was 87.1%. For the same compound, the viability, T/C [2] was 89.3%, the viability, T/C [3] was 20% and the viability, T/C [4] was 9.42%. It also gave a viability, T/C [5] of 1.93%, a viability, T/C [6] of 0.47% and a viability, T/C [7] of 11.2%. The viability, T/C [8] was 23.2%, the viability, T/C [9] was 21.4% and the viability, T/C [10] was 2.21%. For the same compound, the viability, T/C [11] was 1.04%, the viability, T/C [12] was 0.58% and the viability, T/C [13] was 8.64%. It also gave a viability, T/C [14] of 4.75%, a viability, T/C [15] of 3.76% and a viability, T/C [16] of 1.59%. It also gave a viability, T/C [17] of 0.8%, a viability, T/C [18] of 16.5% and a viability, T/C [19] of 10.5%. It also gave a viability, T/C [20] of 14.6%, a viability, T/C [21] of 19.2% and a viability, T/C [22] of 1.44%. For the same compound, the viability, T/C [23] was 1.18%, the viability, T/C [24] was 18.5% and the outcome [25] was “inactive”. For the same compound, the viability, T/C [26] was 24.1%, the viability, T/C [27] was 13.9% and the viability, T/C [28] was 1.69%. It also gave a viability, T/C [29] of 19.3% and a viability, T/C [30] of 0.46%.
`Cn1ncnc1[C@H]1c2n[nH]c(=O)c3cc(F)cc(c23)N[C@@H]1c1ccc(F)cc1` + Cn1nnc2c(C(N)=O)ncn2c1=O gave an IC50 (second compound 1 µM) of 9.72 nM, an IC50 (second compound 3.16 µM) of under 9.49 nM and an IC50 (second compound 10 µM) of under 9.49 nM. The IC50 (second compound 31.6 µM) was under 9.49 nM, the IC50 (second compound 100 µM) was under 9.49 nM and the viability, T/C [1] was 50.5%. For the same compound, the viability, T/C [2] was 26.7%, the viability, T/C [3] was 4.42% and the viability, T/C [4] was 1.85%. The viability, T/C [5] was 2.02%, the viability, T/C [6] was 2.04% and the viability, T/C [7] was 3.96%. For the same compound, the viability, T/C [8] was 22.4%, the viability, T/C [9] was 21.4% and the viability, T/C [10] was 1.75%. It also gave a viability, T/C [11] of 1.84%, a viability, T/C [12] of 19.8% and a viability, T/C [13] of 19.2%. For the same compound, the viability, T/C [14] was 1.53%, the viability, T/C [15] was 2.45% and the viability, T/C [16] was 2.8%. For the same compound, the viability, T/C [17] was 18.3%, the viability, T/C [18] was 1.95% and the viability, T/C [19] was 1.95%. It also gave a viability, T/C [20] of 1.94%, a viability, T/C [21] of 3.12% and a viability, T/C [22] of 1.9%. For the same compound, the viability, T/C [23] was 1.85%, the viability, T/C [24] was 2.06% and the viability, T/C [25] was 1.84%. The viability, T/C [26] was 2.1%, the viability, T/C [27] was 2.47% and the viability, T/C [28] was 2.51%. It also gave a viability, T/C [29] of 18.2% and a viability, T/C [30] of 2.29%.
`O=C(c1cc(Cc2n[nH]c(=O)c3ccccc23)ccc1F)N1CCN(C(=O)C2CC2)CC1` + Cn1nnc2c(C(N)=O)ncn2c1=O gave an IC50 (second compound 1 µM) of 179 nM, an IC50 (second compound 3.16 µM) of under 94.9 nM and an IC50 (second compound 10 µM) of under 94.9 nM. The IC50 (second compound 31.6 µM) was under 94.9 nM, the IC50 (second compound 100 µM) was under 94.9 nM and the viability, T/C [3] was 77.8%. The viability, T/C [4] was 22.5%, the viability, T/C [5] was 23.6% and the viability, T/C [6] was 20.8%. For the same compound, the viability, T/C (second compound 1 µM, first compound 9.49 µM) was 2.93%, the viability, T/C (second compound 1 µM, first compound 30 µM) was 5.71% and the viability, T/C [9] was 19.4%. For the same compound, the viability, T/C [10] was 25.9%, the viability, T/C [11] was 23.3% and the viability, T/C [12] was 3.5%. The viability, T/C (second compound 3.16 µM, first compound 9.49 µM) was 24.2%, the viability, T/C (second compound 3.16 µM, first compound 30 µM) was 8.1% and the viability, T/C [15] was 24.5%. The viability, T/C [16] was 23.7%, the viability, T/C [17] was 21.8% and the viability, T/C [18] was 20%. The viability, T/C (second compound 10 µM, first compound 9.49 µM) was 20.2%, the viability, T/C (second compound 10 µM, first compound 30 µM) was 5.57% and the viability, T/C [21] was 24.9%. For the same compound, the viability, T/C [22] was 26.2%, the viability, T/C [23] was 21.8% and the viability, T/C [24] was 20.8%. It also gave a viability, T/C (second compound 31.6 µM, first compound 9.49 µM) of 20.5%, a viability, T/C (second compound 31.6 µM, first compound 30 µM) of 3.19% and a viability, T/C [27] of 21.8%. For the same compound, the viability, T/C [28] was 23.7%, the viability, T/C [29] was 23% and the viability, T/C [30] was 21.4%. It also gave a viability, T/C (second compound 100 µM, first compound 9.49 µM) of 2.71% and a viability, T/C (second compound 100 µM, first compound 30 µM) of 2.88%.
